Experimental data from patent US9567301B2, “Pyrrol-1-yl benzoic acid derivatives useful as myc inhibitors” (Whitehead Institute for Biomedical Research, priority 2012, dated 2017).
Entries after “also recorded” stand apart in the source; their conditions may differ. Where two headings read alike, the source gives them in different places.

Legend:
[1] = molecular target: T1, c-Myc/Max/Ebox DNA (Homo sapiens, UniProt P01106); assay: Gelshift assay, c-Myc/Max/Ebox DNA complex formation; type: binding
Procedure: FIG. 5 describes validation of Compound 63 activity using an orthogonal biochemical assay. […] Decreasing amounts of 63 was added to purified c-Myc, Max and biotinylated Ebox DNA. Biotinylated Ebox DNA complexed with protein (either c-Myc/Max or Max/Max) or free (bottom band) was assayed using a 6% retardation gel, transferred to a membrane and detected using straptavidin-HRP. […]
(§1) AlphaScreen hits can be validated using orthogonal biochemical assays such as a gelshift assay (also called an electrophoretic mobility shift assay) with purified components or cellular lysates. FIG. 5 (left) illustrates how the AlphaScreen hit 63 was validated using a gelshift assay with purified c-Myc, Max and Ebox DNA. […] Compounds and analogs were then examined for potency and selectivity against structurally similar transcription factor:DNA complexes, such as Max/Max/Ebox DNA and MITF/MITF/Ebox DNA. Data in FIG. 9 show how analogs can be tested for potency against structurally similar transcription factors and how medicinal chemistry optimization can drive potency and selectivity against different transcription factor:DNA complexes. […] The selectivity among structurally similar transcription factors can also provide insights into compound mechanism of action. […] Cellular assays can compliment the biochemical analyses to measure the cellular potency of compounds to induce cellular phenotypes expected as a result of loss of transcription factor function. This includes gene expression analysis, chromatin immunoprecipitation (ChIP) analysis, cellular proliferation analysis and cell state analysis. Gene expression analysis can be performed using qRT-PCR, Nanostring technology, microarray technology, or RNA-seq technology to study transcript changes following treatment with compound. ChIP analysis can be performed on the factor of interest to study if compound treatment alters its genomic occupancy. Cellular proliferation and cell state analysis can indicate if the compound alters cell cycle progression or cellular identity. Thus, the approach using biochemical and cellular assays with large chemical libraries or focused libraries of hits identified in high throughput screens can serve as a platform to develop inhibitors of transcription factor function.

[2] = molecular target: T1, c-Myc/Max/Ebox DNA; assay: c-Myc/Max/Ebox DNA AlphaScreen assay; type: binding; design: An exemplary assay uses full-length human c-Myc and Max proteins; his6 (cleaved yes); made in house
How it was run: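 Free c-Myc (25 nM), made by thrombin removal of the His6 tag, is pre-mixed with biotin-Ebox DNA (10 nM) and Ni acceptor beads before compound addition, then His6-Max (1.25 nM) and streptavidin donor beads are added. Buffer is HEPES pH 8.0 with BSA, Tween20, glycogen and DTT. Read after 2 h, excitation 680 nm, emission 520–620 nm.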

[3] = molecular target: T2, MITF/MITF/Ebox DNA (Homo sapiens, UniProt O75030); assay: Gelshift assay, MITF/MITF/Ebox DNA complex formation; type: binding; conditions: relative to DMSO at 2.5 µM (FIG. 9)
T2 sequence (O75030 1-526): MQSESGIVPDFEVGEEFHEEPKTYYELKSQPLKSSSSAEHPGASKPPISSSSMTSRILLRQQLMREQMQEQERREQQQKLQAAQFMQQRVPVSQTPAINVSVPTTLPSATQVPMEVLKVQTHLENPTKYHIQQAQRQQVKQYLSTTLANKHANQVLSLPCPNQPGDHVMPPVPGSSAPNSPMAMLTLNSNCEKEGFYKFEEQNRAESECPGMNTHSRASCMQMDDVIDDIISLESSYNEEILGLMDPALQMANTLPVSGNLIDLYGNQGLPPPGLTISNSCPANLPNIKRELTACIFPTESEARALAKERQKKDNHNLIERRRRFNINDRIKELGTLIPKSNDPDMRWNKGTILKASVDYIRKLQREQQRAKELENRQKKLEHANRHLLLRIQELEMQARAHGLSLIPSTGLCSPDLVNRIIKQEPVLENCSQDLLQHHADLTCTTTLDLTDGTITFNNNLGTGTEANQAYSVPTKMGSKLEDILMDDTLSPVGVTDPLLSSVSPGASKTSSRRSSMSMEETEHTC
Procedure: (§2) Compounds tested at 2.5 μM for their inhibitory activity against c-Myc/Max/Ebox DNA, Max/Max/Ebox DNA and MITF/MITF/Ebox DNA complex formation using gelshift assays.
as §1

[4] = test system: H2171 cells; assay: Cell viability assay (ATPlite), H2171; type: cell-based, human; conditions: for EC50: Homo sapiens, NCI-H2171, 72 h, cell viability, three days, ATPlite, NA: inactive under assay conditions
How it was run: (§3)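 Cells seeded at 60,000 cells/mL and dosed immediately by pin transfer in 10-point quadruplicate dose response from DMSO stocks. After three days at 37 °C, viability was read by ATPlite luminescence after 15 min at room temperature.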

[5] = test system: MM1S cells; assay: Cell viability assay (ATPlite), MM1S; type: cell-based, human; conditions: for EC50: cell viability, three days, ATPlite, NA: inactive under assay conditions
How it was run: as §3

[6] = molecular target: T3, c-Myc (Homo sapiens, UniProt P01106); assay: c-Myc chromatin immunoprecipitation assay in H2171 cells; type: cell-based; conditions: 100 μM, 4 hours
T3 construct: c-Myc genomic occupancy in H2171 cells treated with DMSO, Compound 63 (100 μM) or CC34301 (100 μM); endogenous in cells; host or cells: H2171
Procedure: FIG. 6 depicts a c-Myc chromatin immunoprecipitation assay to investigate c-Myc genomic occupancy in H2171 cells treated with DMSO, Compound 63 (100 μM) or CC34301 (100 μM) for 4 hours. Standard chromatin immunoprecipitation procedures were followed using an antibody specific to c-Myc (Santa Cruz, catalogue number sc-764). Quantitative PCR analysis was performed on four c-Myc binding sites (Npm1, Mat2a, Hnrnpa2b1, and Rp123a) and one non-binding site (Neg region) and normalized to a background region to determine the fold enrichment over background.

[7] = test system: HL-60 promyelocytic leukemia cells; assay: HL-60 differentiation (qRT-PCR, FACS); type: cell-based, human; conditions: HL-60 cells
Procedure: FIG. 7 depicts the assessment of on-target activity versus general toxicity. HL-60 promyelocytic leukemia cells express high levels of c-Myc to maintain a proliferative and undifferentiated cell state. Loss of c-Myc function results in loss of cellular proliferation and induction of cellular differentiation. HL-60 cells were treated with DMSO, 64 (12.5 μM or 25 μM), or 151 (25 μM) for four days.

[8] = test system: Jurkat cells; assay: Cell viability assay (ATPlite), Jurkat; type: cell-based, human; conditions: Homo sapiens, Jurkat; class symbols; NA: not active under assay conditions
Procedure: This assay was used for the H2171 and MM1S cell data shown in Table 2, and for the Jurkat (an immortalized line of human T lymphocyte cells), Ly1 (OCI-Ly1 human non-Hodgkin lymphoma cell line), Ly4 (OCI-Ly4 human non-Hodgkin lymphoma cell line), H2172 (NCI-H2172 human non-small cell lung cancer cell line), and CA-46 (a human Burkitt's lymphoma cell line) cell data shown in Table 3 and FIG. 12. Cells were counted and adjusted to 60,000 cells/mL. Using a Biotek EL406, 50 μL of cells are media were distributed into 384 well white plates from Thermo. Immediately after plating, compound in DMSO was distributed to plates. For large plate sets, cells were returned to 37° C. incubator while not in use.
Compounds were added to plates using a 100 nL 384 well pin transfer manifold on a Janus workstation. Stocks were arrayed in 10 point quadruplicate dose response in DMSO stock in 384 well Greiner compound plates. After addition of compound, plates were incubated for three days in a 37° C. incubator.
Cell viability was read out using ATPlite from Perkin Elmer. Plates were removed from the incubator and brought to room temperature prior to use. Lyophilized powder was resuspended in lysis buffer and diluted 1:2 with DI water. 25 μL of this solution was added to each well using the Biotek liquid handler. Plates were sealed with adherent aluminum seals prior to vortexing and spinning down at 1000 g for 1 minute. Plates were incubated for 15 minutes at room temperature before signal was read on an Envision Plate Reader.

[9] = test system: protein:DNA complex; assay: Comparative biochemical analyses of protein:DNA complex formation (FIG. 10); type: binding; conditions: FIG. 10, DNA intercalator comparison
[10] = molecular target: Max/Max/Ebox DNA (Homo sapiens, UniProt P61244); assay: Gelshift assay, Max/Max/Ebox DNA complex formation; type: binding; conditions: relative to DMSO at 2.5 µM (FIG. 9)
Procedure: as §2
as §1, with “Gene expression analysis can be performed using qRT-PCR, Nanostring technology, microarray technology, or RNA-seq technology to study transcript changes following treatment with compound. ChIP analysis can be performed on the factor of interest to study if compound treatment alters its genomic occupancy. Cellular proliferation and cell state analysis can indicate if the compound alters cell cycle progression or cellular identity. Thus, the approach using biochemical and cellular assays with large chemical libraries or focused libraries of hits identified in high throughput screens can serve as a platform to develop inhibitors of transcription factor function.” left out

[11] = relative to DMSO at 2.5 mM (FIG. 9)
[12] = c-Myc/Max/Ebox DNA AlphaScreen, NA: inactive under assay conditions, read-out: Biochemical IC50
[13] = class symbols, NA: not active under assay conditions, read-out: Myc/Max IC50

T1 sequence (P01106 16-454): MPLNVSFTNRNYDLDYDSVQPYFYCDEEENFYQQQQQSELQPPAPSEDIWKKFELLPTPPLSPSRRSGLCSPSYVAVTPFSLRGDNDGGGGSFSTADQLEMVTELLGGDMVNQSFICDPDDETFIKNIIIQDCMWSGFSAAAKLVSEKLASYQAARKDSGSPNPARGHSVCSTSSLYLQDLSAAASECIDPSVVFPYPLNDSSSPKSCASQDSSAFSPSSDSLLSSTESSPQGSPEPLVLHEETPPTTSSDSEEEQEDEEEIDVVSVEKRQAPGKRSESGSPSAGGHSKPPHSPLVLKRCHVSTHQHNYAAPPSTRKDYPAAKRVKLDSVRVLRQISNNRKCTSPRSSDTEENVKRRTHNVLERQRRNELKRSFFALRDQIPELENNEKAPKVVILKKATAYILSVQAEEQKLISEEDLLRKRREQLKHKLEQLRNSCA
T3 sequence (P01106 whole entry): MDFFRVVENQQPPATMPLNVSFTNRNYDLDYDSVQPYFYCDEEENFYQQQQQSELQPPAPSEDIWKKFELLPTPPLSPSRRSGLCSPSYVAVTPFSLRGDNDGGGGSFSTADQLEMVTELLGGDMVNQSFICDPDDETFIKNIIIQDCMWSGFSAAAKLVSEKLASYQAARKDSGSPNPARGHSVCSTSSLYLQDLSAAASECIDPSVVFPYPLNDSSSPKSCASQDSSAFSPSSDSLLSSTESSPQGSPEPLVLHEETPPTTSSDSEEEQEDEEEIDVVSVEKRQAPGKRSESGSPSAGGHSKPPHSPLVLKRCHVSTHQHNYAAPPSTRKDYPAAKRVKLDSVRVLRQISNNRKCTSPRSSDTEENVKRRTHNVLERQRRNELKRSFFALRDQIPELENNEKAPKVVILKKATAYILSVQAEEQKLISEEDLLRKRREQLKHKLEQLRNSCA
Chain of Max/Max/Ebox DNA (P61244 whole entry): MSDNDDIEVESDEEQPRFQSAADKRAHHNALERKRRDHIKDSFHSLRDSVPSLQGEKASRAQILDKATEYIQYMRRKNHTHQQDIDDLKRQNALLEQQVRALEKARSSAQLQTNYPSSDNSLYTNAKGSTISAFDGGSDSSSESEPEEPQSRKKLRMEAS

SMILES	c-Myc/Max/Ebox DNA complex formation [1, 11]	IC50 [2, 12]	MITF/MITF/Ebox DNA complex formation [3]	EC50 [4]	EC50 ([5]; Homo sapiens, MM1.S, 72 h)	EC50 [8]	IC50 [2, 13]	also measured
Cc1ccc(C)n1-c1cc(C(=O)N/N=C/c2ccc(O)c(O)c2O)ccc1C(=O)O [Compound 79]	disrupted	0.531 µM	disrupted	–	–	–	–	–
Cc1ccc(C)n1-c1ccccc1C(=O)O [Compound 63, 2-(2,5-dimethylpyrrolyl)benzoic acid]	–	24.2 µM	–	96.9 µM	–	–	–	selectivity c-Myc/Max versus Max/Max ([1]; at tested doses (FIG. 5)): selectivity towards c-Myc/Max; c-Myc/Max/Ebox DNA complex formation ([1]; decreasing amounts of compound (FIG. 5)): reduced c-Myc/Max/Ebox DNA complex formation in a dose-dependent manner; also recorded: inhibits c-Myc/Max/Ebox DNA complex formation (top band) in a dose dependent manner; EC50 [5]: 322 µM; Max genomic occupancy [6]: largely unchanged; c-Myc protein levels [6]: unchanged; c-Myc occupancy at binding sites (Npm1, Mat2a, Hnrnpa2b1, Rp123a) ([6]; compared to DMSO or CC34301): reduced c-Myc occupancy
Cc1ccc(C)n1-c1cc(C(=O)N/N=C/c2ccc(-c3nnn[nH]3)cc2)ccc1C(=O)O [Compound 92]	–	1.66 µM	most potent of the compounds tested	–	731 µM	–	–	–
CC(=O)OCOC(=O)c1ccccc1-n1c(C)ccc1C [Compound 64]	–	155 µM	–	29.9 µM	52.3 µM	10 to 100 µM	≥ 100 µM	expression of differentiation markers (qRT-PCR) ([7]; 12.5 μM or 25 μM, four days): induces the expression of three differentiation markers (CD14, CD11c, and CCL4); differentiation marker CD11c (FACS) ([7]; 4 days): express the differentiation marker CD11c; cellular activity in cellular proliferation assay ([4]; H2171, relative to free acid Compound 63 (FIG. 3)): increased cellular activity; cellular activity/potency in cellular proliferation assay ([5]; MM1.S, prodrug relative to free acid (FIG. 3, FIG. 4)): increased cellular activity
COc1cccc2c1C(=O)c1c(O)c3c(c(O)c1C2=O)C[C@@](O)(C(=O)CO)C[C@@H]3O[C@H]1C[C@H](N)[C@H](O)[C@H](C)O1 [doxorubicin]	–	–	–	–	–	–	–	protein:DNA complex formation [9]: non-specifically disrupts protein:DNA complex formation
Cc1ccc(C)n1-c1cc(C(=O)N/N=C/c2cccc(C(=O)O)c2)ccc1C(=O)O [Compound 101, (E)-4-(2-(3-carboxybenzylidene)hydrazinecarbonyl)-2-(2,5-dimethyl-1H-pyrrol-1-yl)benzoic acid]	potently disrupted	–	potently disrupted	–	–	10 to 100 µM	1 to 10 µM	Max/Max/Ebox DNA complex formation [10]: potently disrupted; biochemical activity ([2]; FIG. 4): increased biochemical activity
